Laboratory results as given in US20250243219A1, “MACROCYCLIC COMPOUNDS AND USES THEREOF” (Cypralis Limited, priority 2022, published 2025).

Assays:
[1] = tested on: permeabilised HepG2 cells; experiment: Calcium retention capacity (CRC) assay in permeabilised HepG2 cells (MPTP opening); type: cell-based, human; parameters: CRC [10 μM]: unit not given here; details: compound at 10 μM; for CRC [10 μM]: digitonin permeabilised HepG2 cells; for CRC [10 μM] (ratio vs CsA): normalised to cyclosporin A, value in brackets
Method: The use of permeabilised cells means that inhibitory compounds that may not normally enter non-permeabilised cells are more likely to be active.
The calcium retention capacity (CRC) is a measure of the capability of mitochondria to retain calcium, primarily in the form of calcium phosphates, in the mitochondrial matrix.
In a CRC assay, the calcium indicator Calcium Green-5N (InVitrogen) is utilized. […] The assay is carried out in HepG2 (human hepatocellular carcinoma) cells which are digitonin permeabilized. Trains of calcium pulses (typically 5 μM additions) are added which results in a sudden increase in fluorescence which is then reduced by mitochondrial buffering. The cells will reach a point at which the calcium addition is no longer buffered, an indication that the MPTP has opened (mitochondrial permeability transition).
The experiment is performed with and without inhibitor. A compound that acts to inhibit the mitochondrial pore opening will result in a greater requirement for calcium to reach the transition point. The results are normalised to a positive control (cyclosporin A) in each experiment. The results are shown in column 3 of Table 5 as CRC [10 μM] (ratio vs CsA). The method of digitonin permeabilised whole cell CRC assay is similar to that used by Chiara et al. (PLoS One, March, 3, 3, e1852 (2008)).

[2] = biological target: cyclophilin D (Homo sapiens (Human), UniProt P30405); experiment: Functional peptidyl prolyl isomerase (PPIase) spectrophotometric assay, cyclophilin D; type: biochemical; details: second value of CypA/D cell; read-out: Ki CypD
Excerpt: (§1) Cyclophilins are enzymes that catalyse the cis-trans isomerisation of peptide bonds to the amino acid proline. This event is important in many biological processes, including protein folding and signal transduction. […] The method to measure this activity and its inhibition is similar to that described by Jankowski (Analytical Biochemistry, 252, 2, 299-307 (1997)). The assay measures the cis to trans isomerisation of a peptide substrate catalysed by a PPlase enzyme using a UV/Vis spectrophotometer. This assay is a manual single cuvette-based assay. A first order rate equation is fitted to the absorbance data to obtain a rate constant. The catalytic rate is calculated from the enzymatic rate minus the background rate. The Ki (the concentration required to produce half maximum inhibition) for an inhibitor is obtained from the rate constant plotted against the inhibitor concentration. Typically, a 6-point dose response curve is obtained from duplicates and a Ki determined. Data are given in Table 5 as Ki [nM] for cyclophilins A and D, expressed in column 2 of Table 5 as Ki (cypA)/Ki (cypD).

[3] = tested on: SH-SY5Y cells; experiment: Thapsigargin treated cell death assay in SH-SY5Y cells; type: cell-based, human; details: compound at 10 μM, positive = protection from cell death, negative = compound toxicity
Excerpt: Thapsigargin raises intracellular free calcium (Ca^2+) by potently inhibiting the endoplasmic reticulum Ca-ATPase, which sequesters Ca^2+ from the cytosol. The increased cytosolic Ca^2+ concentration is buffered by mitochondria by exchanging Ca^2+ for K, leading to depolarisation in the inner mitochondrial membrane and permeability transition.
The thapsigargin treated Jurkat cell death assay is a homogeneous 96 well plate based assay for cell death, instigated by the opening of the mitochondrial permeability transition pore (MPTP). The addition of thapsigargin to Jurkat cells results in an influx of calcium, the increase in intracellular calcium will initially be buffered by the mitochondria, but eventually the increasing calcium concentration will result in the opening of the MPTP, resulting in cell death.
CellTox™ Green is a dye which is unable to enter the cell until cell death leads to the loss of membrane integrity. Once this happens the CellTox™ Green enters the cell, binds to the cell's DNA and emits a fluorescent signal. […] Unless otherwise stated, the assay is typically run using a range of three compound concentrations of 1, 3 and 10 μM in triplicate and is read kinetically over a period of 24 hours. Compounds are added 30 minutes before the addition of thapsigargin. Compound only controls and positive control, cyclosporin A (CsA) (3 and 10 μM) are also included in the assay. Results are typically calculated at the 8 hour time point and the kinetic data is also reported.
The assay is carried out as described for the Jurkat cells but using the SH-SY5Y (human neuroblastoma) cell line instead of Jurkat cells. The results are shown in the fourth column of Table 5 (SY5Y [10 μM]% recovery). Positive numbers indicate protection from cell death, negative numbers indicate compound toxicity.

[4] = biological target: cyclophilin A (Homo sapiens (Human), UniProt P62937); experiment: Functional peptidyl prolyl isomerase (PPIase) spectrophotometric assay, cyclophilin A; type: biochemical; details: first value of CypA/D cell
Excerpt: as §1

Chain of cyclophilin D (P30405 30-207, species assumed): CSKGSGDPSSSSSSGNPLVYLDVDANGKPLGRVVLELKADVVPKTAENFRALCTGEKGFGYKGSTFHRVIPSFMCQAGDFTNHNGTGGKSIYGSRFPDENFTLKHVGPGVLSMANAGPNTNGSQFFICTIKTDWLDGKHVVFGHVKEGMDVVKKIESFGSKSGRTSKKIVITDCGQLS
Chain of cyclophilin A (P62937 whole entry, species assumed): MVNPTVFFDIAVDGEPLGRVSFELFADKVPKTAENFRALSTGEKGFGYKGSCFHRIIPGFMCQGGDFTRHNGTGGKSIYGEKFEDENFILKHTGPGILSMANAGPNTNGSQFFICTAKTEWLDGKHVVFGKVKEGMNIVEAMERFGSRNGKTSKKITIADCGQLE

Structure (SMILES) | Ki [2] [nM] | Ki [4] [nM] | CRC [10 μM] [1] | CRC [10 μM] (ratio vs CsA) [1] | SYSY [10 μM] % recovery [3] [%] | further results
C[C@@H]1NC(=O)[C@@H](CC2CCCNC2)OC(=O)C(C)(C)/C=C/c2ccc3ccc(nc3c2)N(C)NC(=O)[C@@H]2CCCN(N2)C1=O (single isomer, unassigned) [Compound (30)] | 450 |  | 10 | 0.33 |  | SYSY [10 μM] % recovery ([3]; listed as 30): 10%
CNC(=O)c1ccc(CC2OC(=O)C(C)(C)/C=C/c3ccc4ccc(nc4c3)N(C)NC(=O)[C@@H]3CCCN(N3)C(=O)[C@H](C)NC2=O)cc1 (single isomer, unassigned) [Compound (38)] | 190 | 160 |  |  |  | CRC [10 μM] ([1]; listed as 38): 7.5; CRC [10 μM] (ratio vs CsA) ([1]; listed as 38): 0.33; SYSY [10 μM] % recovery ([3]; listed as 38): 8%
C[C@@H]1NC(=O)C(Cc2ccc(C(=O)O)cc2)OC(=O)C(C)(C)/C=C/c2ccc3ccc(nc3c2)N(C)NC(=O)[C@@H]2CCCN(N2)C1=O (single isomer, unassigned) [Compound (40)] |  |  |  |  |  | CRC [10 μM] ([1]; listed as 40): 5; CRC [10 μM] (ratio vs CsA) ([1]; listed as 40): 0.33; SYSY [10 μM] % recovery ([3]; listed as 40): 51%
CC(C)[C@@H]1OC(=O)C(C)(C)/C=C/c2ccc3ccc(nc3c2)N(Cc2ccccc2)NC(=O)[C@@H]2CCCN(N2)C(=O)[C@H](C)NC1=O [Compound (9)] | 4.3 | 1.7 | 279.4 | 1 | 87.067 | 
COC[C@]1(C)/C=C/c2ccc3ccc(nc3c2)N(C)NC(=O)[C@@H]2CCCN(N2)C(=O)[C@H](C)NC(=O)[C@H](C(C)C)OC1=O [Compound (14)] | 25 | 17 | 40 | 1.09 | 9.3 | 
CC(C)[C@@H]1OC(=O)[C@@](C)(Cc2ccccc2)/C=C/c2ccc3ccc(nc3c2)N(C)NC(=O)[C@@H]2CCCN(N2)C(=O)[C@H](C)NC1=O [Compound (17)] | 9 | 1.7 | 33.3 | 0.95 | 87.8 | 
CC(C)[C@@H]1OC(=O)C2(/C=C/c3ccc4ccc(nc4c3)N(C)NC(=O)[C@@H]3CCCN(N3)C(=O)[C@H](C)NC1=O)CCCC2 [Compound (21)] | 6.1 | 2.5 | 32.5 | 0.93 | 33.8 | 
CC(C)[C@@H]1NC(=O)C(C)(C)/C=C/c2ccc3ccc(nc3c2)N(C)NC(=O)[C@@H]2CCCN(N2)C(=O)[C@H](C)NC1=O [Compound (22)] | 27 | 13 | 25 | 0.83 | 4 | 
CC(C)[C@@H]1CC(=O)C(C)(C)/C=C/c2ccc3ccc(nc3c2)N(C)NC(=O)[C@@H]2CCCN(N2)C(=O)[C@H](C)NC1=O [Compound (25)] | 6.2 | 17.5 | 20 | 0.8 | 26.2 | 
C[C@@H]1NC(=O)[C@H](C[C@@H]2CCCN(C)C2)OC(=O)C(C)(C)/C=C/c2ccc3ccc(nc3c2)N(C)NC(=O)[C@@H]2CCCN(N2)C1=O [Compound (36)] | 1400 | 390 | 7.5 | 0.42 | 19 | 

More lines, in order of falling Ki [2], values ahead:

Ki [2] [nM] | Ki [4] [nM] | Structure (SMILES) | CRC [10 μM] [1] | CRC [10 μM] (ratio vs CsA) [1] | SYSY [10 μM] % recovery [3] [%] | further results
3800 | 280 | C[C@@H]1NC(=O)[C@@H](CC2CCCNC2)OC(=O)C(C)(C)/C=C/c2ccc3ccc(nc3c2)N(C)N(C)C(=O)[C@@H]2CCCN(N2)C1=O (single isomer, unassigned) [Compound (33)] | 5 |  | 9 | CRC [10 μM] (ratio vs CsA) ([1]; listed as 33): 0.2
1100 | 1100 | C[C@@H]1NC(=O)[C@H](CC2CCCNC2)NC(=O)C(C)(C)/C=C/c2ccc3ccc(nc3c2)N(C)NC(=O)[C@@H]2CCCN(N2)C1=O (some centres unmarked) [Compound (35)] | 10 | 0.41 | 37 | 
220 | 30 | C[C@@H]1NC(=O)C(Cc2ccc(C(=O)O)cc2)OC(=O)C(C)(C)/C=C/c2ccc3ccc(nc3c2)N(C)NC(=O)[C@@H]2CCCN(N2)C1=O (single isomer, unassigned) [Compound (41)] |  |  |  | CRC [10 μM] ([1]; listed as 41): 10; CRC [10 μM] (ratio vs CsA) ([1]; listed as 41): 0.67; SYSY [10 μM] % recovery ([3]; listed as 41): 0%
180 | 790 | C[C@@H]1NC(=O)[C@@H](CC2CCCNC2)OC(=O)C(C)(C)/C=C/c2ccc3ccc(nc3c2)N(C)NC(=O)[C@@H]2CCCN(N2)C1=O (single isomer, unassigned) [Compound (31)] | 10 | 0.33 |  | SYSY [10 μM] % recovery ([3]; listed as 31): 12%
54 | 25 | CC(C)[C@H]1OC(=O)C/C=C/c2ccc3ccc(nc3c2)N(C)NC(=O)[C@@H]2CCCN(N2)C(=O)[C@H](C)NC1=O (stereo in doubt) [Compound (1)] | 35 | 0.95 | 8.4 | 
49 | 240 | CNC(=O)c1ccc(C[C@@H]2OC(=O)C(C)(C)/C=C/c3ccc4ccc(nc4c3)N(C)N(C)C(=O)[C@@H]3CCCN(N3)C(=O)[C@H](C)NC2=O)cc1 [Compound (12)] | 15 | 0.75 | 25 | 
36 | 30 | CNC(=O)c1ccc(CC2OC(=O)C(C)(C)/C=C/c3ccc4ccc(nc4c3)N(C)NC(=O)[C@@H]3CCCN(N3)C(=O)[C@H](C)NC2=O)cc1 (single isomer, unassigned) [Compound (39)] |  |  |  | CRC [10 μM] ([1]; listed as 39): 15; CRC [10 μM] (ratio vs CsA) ([1]; listed as 39): 0.67; SYSY [10 μM] % recovery ([3]; listed as 39): 0%
14 | 1.7 | CC(C)[C@@H]1OC(=O)[C@](C)(Cc2ccccc2)/C=C/c2ccc3ccc(nc3c2)N(C)NC(=O)[C@@H]2CCCN(N2)C(=O)[C@H](C)NC1=O [Compound (16)] | 25 | 0.83 | 62 | 
11 | 4.9 | COC[C@@]1(C)/C=C/c2ccc3ccc(nc3c2)N(C)NC(=O)[C@@H]2CCCN(N2)C(=O)[C@H](C)NC(=O)[C@H](C(C)C)OC1=O [Compound (13)] | 35 | 0.95 | 8.4 | 
